Experimental data from ChEMBL document CHEMBL1201862, “PubChem BioAssay data set” (2004).
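Results reflect a 48-hour exposure of cells in 96-well plates to compound at five concentrations. GI50 is the concentration that inhibits growth by half.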 Activity calls are given as the source filed them. Cut-off read from the data, not from the text of the source: active = GI50 up to about 1.1 µM and inactive = higher.

Tests used:
Experiment in all cases: growth of human tumour cells (NCI), 48 h
SK-MEL-5 = test system: SK-MEL-5
Malme-3M = test system: Malme-3M
OVCAR-3 = test system: OVCAR-3
SN12C = test system: SN12C
EKVX = test system: EKVX
LOX IMVI = test system: LOX IMVI
HOP-62 = test system: HOP-62
HCT-116 = test system: HCT-116
HCC 2998 = test system: HCC 2998
K562 = test system: K562
MOLT-4 = test system: MOLT-4
SW-620 = test system: SW-620
COLO 205 = test system: COLO 205
SF-295 = test system: SF-295
HCT-15 = test system: HCT-15
NCI-H460 = test system: NCI-H460
OVCAR-5 = test system: OVCAR-5

| SMILES | GI50 (SK-MEL-5) | GI50 (Malme-3M) | GI50 (OVCAR-3) | GI50 (SN12C) | GI50 (EKVX) | GI50 (LOX IMVI) | GI50 (HOP-62) | GI50 (HCT-116) | GI50 (HCC 2998) | GI50 (K562) | GI50 (MOLT-4) | GI50 (SW-620) | GI50 (COLO 205) | GI50 (SF-295) | GI50 (HCT-15) | GI50 (NCI-H460) | GI50 (OVCAR-5) |
| --- | --- | --- | --- | --- | --- | --- | --- | --- | --- | --- | --- | --- | --- | --- | --- | --- | --- |
| COC(=O)c1cc2ccccc2c2nc3ccccc3c(Cl)c12 | > 100 µM (inactive) | > 100 µM (inactive) | > 100 µM (inactive) | > 100 µM (inactive) | > 100 µM (inactive) | > 100 µM (inactive) | > 100 µM (inactive) | 87.1 µM (inactive) | > 100 µM (inactive) | > 100 µM (inactive) | > 100 µM (inactive) | > 100 µM (inactive) | > 100 µM (inactive) | > 100 µM (inactive) | > 100 µM | – | – |
| Cc1ccc(NC(=O)CCc2cc(C(C)(C)C)nc(S)n2)cc1C | > 100 µM (inactive) | > 100 µM (inactive) | > 100 µM (inactive) | > 100 µM (inactive) | > 100 µM (inactive) | > 100 µM (inactive) | > 100 µM (inactive) | > 100 µM (inactive) | > 100 µM (inactive) | > 100 µM (inactive) | > 100 µM (inactive) | > 100 µM (inactive) | > 100 µM (inactive) | > 100 µM (inactive) | > 100 µM | > 100 µM (inactive) | > 100 µM (inactive) |
| Cc1ccc2c(c1)c(=O)c1c(NCCN(C)C)ccc3nnn2c31 | 3.06 µM (inactive) | 3.82 µM (inactive) | 5.55 µM (inactive) | 3.45 µM (inactive) | 3.64 µM (inactive) | 1.9 µM (inactive) | 3.59 µM (inactive) | 2.63 µM (inactive) | 3.4 µM (inactive) | 2.91 µM (inactive) | 0.605 µM (active) | 1.57 µM (inactive) | 1.9 µM (inactive) | 1.33 µM (inactive) | 4.18 µM | 2.67 µM (inactive) | 2.59 µM (inactive) |
| COc1ccc2c(c1)Cc1c-2[nH]c2cc3c(cc2c1=O)OCO3 | 6.21 µM (inactive) | 13.7 µM (inactive) | 16.7 µM (inactive) | 30.7 µM (inactive) | 23.8 µM (inactive) | 14.5 µM (inactive) | 17.1 µM (inactive) | 6.56 µM (inactive) | 11.6 µM (inactive) | 7.94 µM (inactive) | 8.81 µM (inactive) | 27.5 µM (inactive) | 12 µM (inactive) | 16.3 µM (inactive) | 9.91 µM | 10.3 µM (inactive) | – |
| COc1ccc(CNc2nc3ccc(C(F)(F)F)cc3nc2-c2ccccc2)cc1OC | – | 73.5 µM (inactive) | 60.8 µM (inactive) | 46.2 µM (inactive) | > 100 µM (inactive) | 36.8 µM (inactive) | > 100 µM (inactive) | 20.7 µM (inactive) | 13.9 µM (inactive) | – | 6.71 µM (inactive) | > 100 µM (inactive) | 6.41 µM (inactive) | 42.9 µM (inactive) | 25.1 µM | 21.2 µM (inactive) | > 100 µM (inactive) |
| C[N+](C)(C)CC1CCCCC1=O (configuration not stated) | 25.2 µM (inactive) | 19.6 µM (inactive) | 19.1 µM (inactive) | > 100 µM (inactive) | 19.9 µM (inactive) | 14 µM (inactive) | > 100 µM (inactive) | 17.7 µM (inactive) | – | 8.63 µM (inactive) | 12.4 µM (inactive) | 8.49 µM (inactive) | 22.6 µM (inactive) | > 100 µM (inactive) | 14.1 µM | 55.3 µM (inactive) | – |
| Cc1cc(NCCCCCCNc2cc(C)nc3cc(N(C)C)ccc23)c2ccc(N(C)C)cc2n1 | 18.2 µM (inactive) | 13.2 µM (inactive) | 57.1 µM (inactive) | 6 µM (inactive) | > 100 µM (inactive) | – | 54.2 µM (inactive) | 10.7 µM (inactive) | 22.4 µM (inactive) | 3.97 µM (inactive) | 6.9 µM (inactive) | 28.6 µM (inactive) | – | 28.2 µM (inactive) | > 100 µM | 13.3 µM (inactive) | 22.4 µM (inactive) |
| [O-]c1c2c(nn1-c1ccccc1)c1ccccc1c[n+]2Cc1ccccc1 | > 100 µM (inactive) | > 100 µM (inactive) | > 100 µM (inactive) | > 100 µM (inactive) | > 100 µM (inactive) | > 100 µM (inactive) | > 100 µM (inactive) | > 100 µM (inactive) | > 100 µM (inactive) | > 100 µM (inactive) | > 100 µM (inactive) | > 100 µM (inactive) | > 100 µM (inactive) | > 100 µM (inactive) | > 100 µM | > 100 µM (inactive) | > 100 µM (inactive) |
| CSC(C1c2ccccc2N(c2ccc(C)cc2)c2[nH]c(=O)n(C)c(=O)c21)S(=O)(=O)c1ccc(C)cc1 (configuration not stated) | > 100 µM (inactive) | > 100 µM (inactive) | > 100 µM (inactive) | > 100 µM (inactive) | > 100 µM (inactive) | > 100 µM (inactive) | > 100 µM (inactive) | > 100 µM (inactive) | > 100 µM (inactive) | > 100 µM (inactive) | > 100 µM (inactive) | > 100 µM (inactive) | > 100 µM (inactive) | > 100 µM (inactive) | – | > 100 µM (inactive) | > 100 µM (inactive) |
| O=C1C(Cl)C(c2cccc([N+](=O)[O-])c2)N1n1cnc2ccccc2c1=O (configuration not stated) | > 100 µM (inactive) | > 100 µM (inactive) | 78.7 µM (inactive) | > 100 µM (inactive) | > 100 µM (inactive) | > 100 µM (inactive) | > 100 µM (inactive) | 37.8 µM (inactive) | > 100 µM (inactive) | 49.7 µM (inactive) | 35.1 µM (inactive) | > 100 µM (inactive) | > 100 µM (inactive) | > 100 µM (inactive) | > 100 µM | 50.9 µM (inactive) | 58.5 µM (inactive) |
| C[N+]1(CCNP(=S)(NCC[N+]2(C)Cc3c(ccc4c3OCO4)C3C2c2cc4c(cc2C[C@@H]3O)OCO4)NCC[N+]2(C)Cc3c(ccc4c3OCO4)C3C2c2cc4c(cc2C[C@@H]3O)OCO4)Cc2c(ccc3c2OCO3)C2C1c1cc3c(cc1C[C@H]2O)OCO3 (some centres not stated) | < 0.00191 µM (active) | < 0.00191 µM (active) | < 0.00191 µM (active) | < 0.00191 µM (active) | < 0.00191 µM (active) | < 0.00191 µM (active) | < 0.00191 µM (active) | < 0.00191 µM (active) | < 0.00191 µM (active) | < 0.00191 µM (active) | – | < 0.00191 µM (active) | < 0.00191 µM (active) | < 0.00191 µM (active) | < 0.00191 µM | < 0.00191 µM (active) | < 0.00191 µM (active) |
| Nc1ccn(CCO)c(=O)n1 | > 100 µM (inactive) | > 100 µM (inactive) | > 100 µM (inactive) | > 100 µM (inactive) | > 100 µM (inactive) | > 100 µM (inactive) | > 100 µM (inactive) | > 100 µM (inactive) | > 100 µM (inactive) | > 100 µM (inactive) | – | > 100 µM (inactive) | > 100 µM (inactive) | > 100 µM (inactive) | > 100 µM | > 100 µM (inactive) | > 100 µM (inactive) |
| CC(N)Cc1cccc(C(F)(F)F)c1 (configuration not stated) | > 100 µM (inactive) | > 100 µM (inactive) | > 100 µM (inactive) | > 100 µM (inactive) | > 100 µM (inactive) | > 100 µM (inactive) | > 100 µM (inactive) | > 100 µM (inactive) | > 100 µM (inactive) | > 100 µM (inactive) | – | > 100 µM (inactive) | > 100 µM (inactive) | > 100 µM (inactive) | > 100 µM | > 100 µM (inactive) | > 100 µM (inactive) |
| CC(=O)Nc1ccc(C(=O)NN2C(=O)C(Cl)C2c2ccccc2)cc1 (configuration not stated) | > 100 µM (inactive) | > 100 µM (inactive) | > 100 µM (inactive) | > 100 µM (inactive) | > 100 µM (inactive) | > 100 µM (inactive) | > 100 µM (inactive) | > 100 µM (inactive) | – | > 100 µM (inactive) | > 100 µM (inactive) | > 100 µM (inactive) | > 100 µM (inactive) | > 100 µM (inactive) | – | > 100 µM (inactive) | > 100 µM (inactive) |
| CCCCCCCCCCCCCCCCCC(CCCCCCCCCCCCCCCCC)OP(=O)(O)O | > 100 µM (inactive) | > 100 µM (inactive) | > 100 µM (inactive) | > 100 µM (inactive) | > 100 µM (inactive) | > 100 µM (inactive) | – | > 100 µM (inactive) | > 100 µM (inactive) | > 100 µM (inactive) | > 100 µM (inactive) | > 100 µM (inactive) | > 100 µM (inactive) | > 100 µM (inactive) | > 100 µM | > 100 µM (inactive) | > 100 µM (inactive) |
| C[C@@]12[Se]c3ccccc3[C@]1(C)[Se]c1ccccc12 | 4.21 µM (inactive) | > 100 µM (inactive) | > 100 µM (inactive) | > 100 µM (inactive) | > 100 µM (inactive) | 5.89 µM (inactive) | – | > 100 µM (inactive) | 6.47 µM (inactive) | 4.17 µM (inactive) | – | 3.27 µM (inactive) | 3.73 µM (inactive) | 38.7 µM (inactive) | – | – | > 100 µM (inactive) |
| CC(=O)C1=C(O)C2C3c4c[nH]c5cccc(c45)CC3C(C)(C)N2C1=O (configuration not stated) | 11.7 µM (inactive) | 33.9 µM (inactive) | 23.1 µM (inactive) | – | 20.6 µM (inactive) | 16.2 µM (inactive) | 6.46 µM (inactive) | – | 23.1 µM (inactive) | 45.7 µM (inactive) | 15.6 µM (inactive) | 30.3 µM (inactive) | > 100 µM (inactive) | 24.3 µM (inactive) | 34.6 µM | 10.8 µM (inactive) | 16.6 µM (inactive) |
